Source: article PMC6219668 (Oncotarget, 2018)
Values joined by “and” are separate entries in the source; they are usually repeats but may differ in a detail not shown here. Identical values can stand only once. Like-named read-outs stand apart in the source and are kept apart here.

Key:
CAMA-1 = experiment: cells; format: cell-based; details: Homo sapiens; CAMA-1, ER+ BC, dominant CDK4; read-out: IC50, mean ± SD
MCF-7 = experiment: cells; format: cell-based; details: Homo sapiens, MCF7; MCF-7, 72 h
NCI-H1573 [1] = experiment: cells; format: cell-based; details: Homo sapiens, NCI-H1573, 72 h
NCI-H1792 = experiment: cells; format: cell-based; details: Homo sapiens, NCI-H1792, 72 h
NCI-H1573 [2] = experiment: cells; format: cell-based; details: Homo sapiens, NCI-H1573, 72 h; remark: listed apart in the source
A2058 = experiment: cells; format: cell-based; details: Homo sapiens, A2058, 72 h
MELJUSO = experiment: cells; format: cell-based; details: Homo sapiens, MEL-JUSO, 72 h
MEL-JUSO = format: in vivo; details: Melanoma
TE-5 = experiment: cells; format: cell-based; details: Homo sapiens, TE-5, 72 h
NCI-H1975 [3] = experiment: cells; format: cell-based; details: Homo sapiens, NCI-H1975, read-out: Percent inhibition
A549 = experiment: cells; format: cell-based; details: Homo sapiens, A549, 72 h
SK-MEL-2 = experiment: cells; format: cell-based; details: Homo sapiens, SK-MEL-2, 72 h
HBCx-2 = format: in vivo; details: HBCx-2, Breast, TNBC, Rb absent; 125 mg/kg bid × 21
NCI-H2009 = system: NCI-H2009; set-up: method as in Brain C et al, manuscript in preparation; details: RB1-deleted lung adenocarcinoma line; up to 10 μM; ref Brain C et al, manuscript in preparation; cited from earlier work
TE-8 = experiment: cells; format: cell-based; details: Homo sapiens, TE-8, 72 h
HBCx-10 = format: in vivo; details: HBCx-10, Breast, TNBC, Rb absent; 125 mg/kg bid × 21
SK-N-SH = experiment: cells; format: cell-based; details: Homo sapiens, 72 h
NCI-H441 = experiment: cells; format: cell-based; details: Homo sapiens, NCI-H441, 72 h
NCI-H1975 [4] = experiment: cells; format: cell-based; details: Homo sapiens, NCI-H1975, 72 h
CDK4 = target: T1, CDK4 (Homo sapiens, UniProt P11802); experiment: KINOMEscan binding assay; details: Supplementary Table 1A
T1 construct: purchased DiscoveRx (KINOMEscan)
T1 sequence (P11802 whole entry): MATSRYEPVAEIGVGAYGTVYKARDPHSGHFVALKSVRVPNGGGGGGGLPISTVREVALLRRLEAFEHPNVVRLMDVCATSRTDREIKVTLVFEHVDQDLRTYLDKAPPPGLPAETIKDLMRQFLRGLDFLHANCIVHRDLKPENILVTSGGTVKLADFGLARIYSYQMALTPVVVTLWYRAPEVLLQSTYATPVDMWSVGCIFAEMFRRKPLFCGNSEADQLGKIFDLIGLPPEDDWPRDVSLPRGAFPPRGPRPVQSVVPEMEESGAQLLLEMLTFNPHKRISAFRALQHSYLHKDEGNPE

HBRX1286 = format: in vivo; details: HBRX1286, Breast, TNBC, Rb absent; 250 mg/kg qd
[5] = system: JeKo-1 mantle cell lymphoma cells; set-up: method as in Brain C et al, manuscript in preparation; details: RB1-proficient; ref Brain C et al, manuscript in preparation; cited from earlier work
SNU-387 = experiment: cells; format: cell-based; details: Homo sapiens, SNU-387, 72 h
BT-483 [6] = experiment: cells; format: cell-based; details: Homo sapiens, BT-483, 72 h
KYSE30 = experiment: cells; format: cell-based; details: Homo sapiens, KYSE-30; KYSE30, 72 h
HPAX1199 = format: in vivo; details: HPAX1199, Pancreatic, Rb present; 250 mg/kg qd
NCI-H23 = experiment: cells; format: cell-based; details: Homo sapiens, NCI-H23, 72 h
NB1 = experiment: cells; format: cell-based; details: Homo sapiens, NB1, 72 h
KYSE450 = experiment: cells; format: cell-based; details: Homo sapiens, KYSE-450; KYSE450, 72 h
[7] = format: in vivo
CDK5/p25 = details: cited from earlier work
HBCx-3 = format: in vivo; details: HBCx-3, Breast, TNBC, Rb present; 125 mg/kg bid × 21
UACC-62 = experiment: cells; format: cell-based; details: Homo sapiens, UACC-62, 72 h
HMEX1906 = format: in vivo; details: mouse, in vivo, 250 mg/kg
Protocol: Animals were housed in a temperature-
In all studies, tumor volume was calculated
For using the following formula: (length × width2)/2. Percent
Data are presented as the percent

T-47d = experiment: cells; format: cell-based; details: Homo sapiens, T47D, 72 h
BT-483 [8] = experiment: cells; format: cell-based; details: Homo sapiens, BT-483, 72 h; remark: listed apart in the source
CDK9/cyclin T1 = details: cited from earlier work
CDK2/cyclin A = details: cited from earlier work
HBCx-14 = format: in vivo; details: HBCx-14, Breast, TNBC, Rb absent; 125 mg/kg bid × 21
VCAP = experiment: cells; format: cell-based; details: Homo sapiens, 72 h

For `CC(=O)c1c(C)c2cnc(Nc3ccc(N4CCNCC4)cn3)nc2n(C2CCCC2)c1=O` [Palbociclib, reference compound], the IC50 (CAMA-1) was 50 ± 24 µM.
In the case of `CN(C)C(=O)c1cc2cnc(Nc3ccc(N4CCNCC4)cn3)nc2n1C1CCCC1` [Ribociclib, 7-cyclopentyl-2-(5-piperazin-1-yl-pyridin-2-ylamino)-7H-pyrrolo[2,3-d]pyrimidine-6-carboxylic acid dimethylamide], the IC50 (MCF-7) is reported as over 10 µM, the IC50 (NCI-H1573 [1]) is reported as over 10 µM and the IC50 (NCI-H1792) is reported as 610 nM. For the same compound, the IC50 (NCI-H1573 [2]) was 610 nM, the IC50 (A2058) was over 10 µM and the IC50 (MELJUSO) was 890 nM. For the same compound, the T/C (MEL-JUSO; 75 mg/kg qd) was 47, the T/C (MEL-JUSO; 150 mg/kg qd) was 32 and the T/C (MEL-JUSO; 250 mg/kg qd) was 2. The IC50 (TE-5) was 2390 nM, the inhibition at 0.08 µM (NCI-H1975 [3]) was 14% and the inhibition at 1.25 µM (NCI-H1975 [3]) was 42%. The inhibition at 5 µM (NCI-H1975 [3]) was 54%, the inhibition at 10 µM (NCI-H1975 [3]) was 61% and the inhibition at […] (NCI-H1975 [3]) was 20% and 28% and 37% and 49%. For the same compound, the IC50 (A549) was 1200 nM, the IC50 (SK-MEL-2) was over 10 µM and the T/C (HBCx-2) was 102. For the same compound, the “effect on cell-cycle progression” value (NCI-H2009) was “no effect”, the IC50 (TE-8) was 2440 nM and the T/C (HBCx-10) was 82. It also gave an IC50 (SK-N-SH) of 9 µM, an IC50 (NCI-H441) of 4.74 µM and an IC50 (NCI-H1975 [4]) of 3.53 µM. For the same compound, the “affinity for CDK4, lower than that observed for abemaciclib” value (CDK4) was about 10 fold, the T/C (HBRX1286) was 82 and the “effect on pRb and cell cycle” value [5] was “dephosphorylation of phosphorylated Rb (pRb) and concomitant G1 cell-cycle arrest”. For the same compound, the IC50 (SNU-387) was 2490 nM, the IC50 (BT-483 [6]) was over 10 µM and the IC50 (KYSE30) was over 10 µM. For the same compound, the T/C (HPAX1199) was 18, the IC50 (NCI-H23) was over 10 µM and the IC50 (NB1) was 1600 nM. For the same compound, the IC50 (KYSE450) was over 10 µM, the body weight loss ([7]; 150 mg/kg) was “only minimal transient body weight loss” and the tolerability ([7]; all ribociclib doses, no significant body weight loss) was “well tolerated”. The “activity against CDK5/p25” value (CDK5/p25) was “far less active”, the T/C (HBCx-3) was 45 and the IC50 (UACC-62) was 9.7 µM. For the same compound, the T/C (HMEX1906) was -12, the IC50 (T-47d) was over 10 µM and the IC50 (BT-483 [8]) was over 10 µM. For the same compound, the “activity against CDK9/cyclin T1” value (CDK9/cyclin T1) was “far less active”, the “activity against CDK2/cyclin A” value (CDK2/cyclin A) was “far less active” and the T/C (HBCx-14) was 92. It also gave an IC50 (VCAP) of over 10 µM.
